Consider 27 molecules from patent publication US12577228B2, “Dihydrocyclopenta-isoquinoline-sulfonamide derivatives compounds” (UCB Biopharma SRL, priority 2019, dated 2026).

This assay addresses T1, IgE-Tb / soluble IgE receptor FcεRIα with a Y131A mutation (Homo sapiens, UniProt P01854, N146Q/N252Q).
T1 construct: fused on or other part: Terbium chelate (LanthaScreen amine-reactive) on IgE-Fc; Alexa Fluor 488 hydrazide on the oxidised glycans of sFcεRIα; Both are labels and no part of the key
Put plainly: in vitro FRET assay: binding of IgE-Tb to receptor FcεRIα-Y131A-AF488 and its inhibition by compounds. Conditions: 5 nM IgE-Tb, 25 nM FcεRIα-Y131A-AF488, 2 hours at room temperature; read-out: FRET IC50 range.

T1 sequence (P01854 104-427 N146Q/N252Q): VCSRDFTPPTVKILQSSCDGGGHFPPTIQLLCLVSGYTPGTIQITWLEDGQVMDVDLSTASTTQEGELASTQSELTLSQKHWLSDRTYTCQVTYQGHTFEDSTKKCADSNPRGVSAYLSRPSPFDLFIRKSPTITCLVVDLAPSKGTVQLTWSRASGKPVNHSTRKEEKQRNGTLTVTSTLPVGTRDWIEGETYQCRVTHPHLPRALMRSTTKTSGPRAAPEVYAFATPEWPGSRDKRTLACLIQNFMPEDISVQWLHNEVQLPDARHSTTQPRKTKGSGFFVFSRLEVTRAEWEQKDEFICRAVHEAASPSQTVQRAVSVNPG
T1 sequence (P12319 26-201 Y156A partner): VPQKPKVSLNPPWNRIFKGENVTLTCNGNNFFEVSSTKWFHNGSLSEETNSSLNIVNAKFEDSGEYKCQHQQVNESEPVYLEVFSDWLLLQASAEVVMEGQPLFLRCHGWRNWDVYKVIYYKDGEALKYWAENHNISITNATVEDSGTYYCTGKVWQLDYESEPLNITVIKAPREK

Consider `CC(C)CNS(=O)(=O)c1c2c(cc3cnc(C4CC4)cc13)C[C@H](Nc1nncn1-c1cccnc1)C2` (single isomer, unassigned) [Example 3, (7R*)-3-cyclopropyl-N-(2-methylpropyl)-7-[(4-pyridin-3-yl-1,2,4-triazol-3-yl)amino]-7,8-dihydro-6H-cyclopenta[g]isoquinoline-5-sulfonamide [* or S]], for which the IC50 (commonly the concentration that gives 50% inhibition) was 10 to 50 nM.
Take `Cn1nnc(-c2ccc(N[C@@H]3Cc4cc5cnc(C6CC6)cc5c(S(=O)(=O)NC5CC(F)C5)c4C3)cn2)n1` (stereo partly drawn) [Example 1, (7R)-3-cyclopropyl-N-(3-fluorocyclobutyl)-7-[[6-(2-methyltetrazol-5-yl)pyridin-3-yl]amino]-7,8-dihydro-6H-cyclopenta[g]isoquinoline-5-sulfonamide]: the IC50 lay in the range of 1 to 10 nM.
Turning to `CC(C)CNS(=O)(=O)c1c2c(cc3cnc(C4CC4)cc13)CC1(c3ncc(-c4cccnc4)[nH]3)CC21` (stereo not drawn) [Example 2, 13-cyclopropyl-˜{N}-(2-methylpropyl)-6-(5-pyridin-3-yl-1˜{H}-imidazol-2-yl)-12-azatetracyclo[8.4.0.0^{3,8}.0^{4,6}]tetradeca-1,3 (8),9,11,13-pentaene-2-sulfonamide], the IC50 was in the range of 10 to 50 nM.
In the case of `CC(C)CNS(=O)(=O)c1c2c(cc3cnc(C4CC4)cc13)CC(NC1=CC(=O)CC1)C2` (stereo not drawn) [Example 4, 3-cyclopropyl-N-(2-methylpropyl)-7-[(3-oxocyclopenten-1-yl)amino]-7,8-dihydro-6H-cyclopenta[g]isoquinoline-5-sulfonamide], the IC50 lay within 10 to 50 nM.
As for `CC(C)CNS(=O)(=O)c1c2c(cc3cnc(C4CC4)cc13)CC(Nc1nncn1CC1CC1)C2` (stereo not drawn) [Example 5, 3-cyclopropyl-7-[[4-(cyclopropylmethyl)-1,2,4-triazol-3-yl]amino]-N-(2-methylpropyl)-7,8-dihydro-6H-cyclopenta[g]isoquinoline-5-sulfonamide], the IC50 was 10 to 50 nM.
In the case of `CC(C)(F)CNS(=O)(=O)c1c2c(cc3cnc(C4CC4)cc13)CC(NC(=O)c1cccnc1)C2` (stereo not drawn) [Example 6, N-[3-cyclopropyl-5-[(2-fluoro-2-methylpropyl)sulfamoyl]-7,8-dihydro-6H-cyclopenta[g]isoquinolin-7-yl]pyridine-3-carboxamide], the IC50 lay within 50 to 100 nM.
For the molecule `CC(C)(F)CNS(=O)(=O)c1c2c(cc3cnc(C4CC4)cc13)CC(NC1=CC(=O)CCC1)C2` (stereo not drawn) [Example 7, 3-cyclopropyl-N-(2-fluoro-2-methylpropyl)-7-[(3-oxocyclohexen-1-yl)amino]-7,8-dihydro-6H-cyclopenta[g]isoquinoline-5-sulfonamide], the IC50 fell in the range of 50 to 100 nM.
As to `CCOC(=O)c1ncn([C@H]2Cc3cc4cnc(C5CC5)cc4c(S(=O)(=O)NCC(C)(C)F)c3C2)c1N` [Example 8, ethyl 5-amino-1-[(7S)-3-cyclopropyl-5-[(2-fluoro-2-methylpropyl)sulfamoyl]-7,8-dihydro-6H-cyclopenta[g]isoquinolin-7-yl]imidazole-4-carboxylate], the IC50 lay in the range of 100 to 2000 nM.
The value for `CC1(CNS(=O)(=O)c2c3c(cc4cnc(C5CC5)cc24)CC(C(=O)Nc2cccnc2)C3)COC1` (stereo not drawn) [Example 9, 3-cyclopropyl-5-[(3-methyloxetan-3-yl)methylsulfamoyl]-N-pyridin-3-yl-7,8-dihydro-6H-cyclopenta[g]isoquinoline-7-carboxamide] was 100 to 2000 nM; that for `Cc1ccc(Oc2cncc(N[C@@H]3Cc4cc5cnc(C6CC6)cc5c(S(=O)(=O)NCC(C)(C)F)c4C3)c2)cn1` [Example 10, (7R)-3-cyclopropyl-N-(2-fluoro-2-methylpropyl)-7-[[5-(6-methylpyridin-3-yl)oxypyridin-3-yl]amino]-7,8-dihydro-6H-cyclopenta[g]isoquinoline-5-sulfonamide] was 1 to 10 nM; that for `CC(C)(F)CNS(=O)(=O)c1c2c(cc3cnc(C4CC4)cc13)C[C@@H](Nc1ccc(C(N)=O)nc1)C2` [Example 11, 5-[[(7R)-3-cyclopropyl-5-[(2-fluoro-2-methylpropyl)sulfamoyl]-7,8-dihydro-6H-cyclopenta[g]isoquinolin-7-yl]amino]pyridine-2-carboxamide] was 10 to 50 nM.
For `CC(C)(F)CNS(=O)(=O)c1c2c(cc3cnc(C4CC4)cc13)C[C@@H](Nc1ccc(CO)nc1)C2` [Example 12, (7R)-3-cyclopropyl-N-(2-fluoro-2-methylpropyl)-7-[[6-(hydroxymethyl)pyridin-3-yl]amino]-7,8-dihydro-6H-cyclopenta[g]isoquinoline-5-sulfonamide], the IC50 fell in the range of 10 to 50 nM.
For the molecule `Cn1nnc(-c2ccc(NC3Cc4cc5cnc(C6CC6)cc5c(S(=O)(=O)NCC5(F)COC5)c4C3)cn2)n1` (stereo not drawn) [Example 13, 3-cyclopropyl-N-[(3-fluorooxetan-3-yl)methyl]-7-[[6-(2-methyltetrazol-5-yl)pyridin-3-yl]amino]-7,8-dihydro-6H-cyclopenta[g]isoquinoline-5-sulfonamide], the IC50 was in the range of 10 to 50 nM.
As for `Cn1cc2c(NC3Cc4cc5cnc(C6CC6)cc5c(S(=O)(=O)NCC5(O)COC5)c4C3)cncc2n1` (stereo not drawn) [Example 14, 3-cyclopropyl-N-[(3-hydroxyoxetan-3-yl)methyl]-7-[(2-methylpyrazolo[3,4-c]pyridin-4-yl)amino]-7,8-dihydro-6H-cyclopenta[g]isoquinoline-5-sulfonamide], the IC50 fell in the range of 10 to 50 nM.
Regarding `CC(C)(F)CNS(=O)(=O)c1c2c(cc3cnc(C4CC4)cc13)C[C@@H](Nc1ccc(C(=O)O)nc1)C2` [Example 15, 5-[[(7R)-3-cyclopropyl-5-[(2-fluoro-2-methylpropyl)sulfamoyl]-7,8-dihydro-6H-cyclopenta[g]isoquinolin-7-yl]amino]pyridine-2-carboxylic acid], the IC50 was in the range of 10 to 50 nM.
Consider `COc1cc(Oc2cncc(N[C@@H]3Cc4cc5cnc(C6CC6)cc5c(S(=O)(=O)NCC(C)(C)F)c4C3)c2)ccn1` [Example 16, (7R)-3-cyclopropyl-N-(2-fluoro-2-methylpropyl)-7-[[5-(2-methoxypyridin-4-yl)oxypyridin-3-yl]amino]-7,8-dihydro-6H-cyclopenta[g]isoquinoline-5-sulfonamide], for which the IC50 was in the range of 50 to 100 nM.
With `CC(O)CNS(=O)(=O)c1c2c(cc3cnc(C4CC4)cc13)CCC2` (stereo not drawn) [Example 17, 3-cyclopropyl-N-(2-hydroxypropyl)-7,8-dihydro-6H-cyclopenta[g]isoquinoline-5-sulfonamide], the IC50 is 100 to 2000 nM.
In the case of `CC(C)(F)CNS(=O)(=O)c1c2c(cc3cnc(C4CC4)cc13)CC(Nc1cncnc1Nc1cccnc1)C2` (stereo not drawn) [Example 18, 3-cyclopropyl-N-(2-fluoro-2-methylpropyl)-7-[[4-(pyridin-3-ylamino)pyrimidin-5-yl]amino]-7,8-dihydro-6H-cyclopenta[g]isoquinoline-5-sulfonamide], the IC50 was in the range of 1 to 10 nM.
In the case of `CC(C)(F)CNS(=O)(=O)c1c2c(cc3cnc(C4CC4)cc13)CC(Nc1cncnc1NCC1CC1)C2` (stereo not drawn) [Example 19, 3-cyclopropyl-7-[[4-(cyclopropylmethylamino)pyrimidin-5-yl]amino]-N-(2-fluoro-2-methylpropyl)-7,8-dihydro-6H-cyclopenta[g]isoquinoline-5-sulfonamide], the IC50 is 10 to 50 nM.
For the molecule `CC(C)(F)CNS(=O)(=O)c1c2c(cc3cnc(C4CC4)cc13)CC(Nc1nc3ccccc3[nH]1)C2` (stereo not drawn) [Example 20, 7-(1H-benzimidazol-2-ylamino)-3-cyclopropyl-N-(2-fluoro-2-methylpropyl)-7,8-dihydro-6H-cyclopenta[g]isoquinoline-5-sulfonamide], the IC50 lay in the range of 10 to 50 nM.
For `CC(C)CNS(=O)(=O)c1c2c(c(N)c3cnc(C4CC4)cc13)CCC2` [Example 21, 9-amino-3-cyclopropyl-N-(2-methylpropyl)-7,8-dihydro-6H-cyclopenta[g]isoquinoline-5-sulfonamide], the IC50 was 50 to 100 nM.
For the molecule `CC(=O)Nc1c2c(c(S(=O)(=O)NCC(C)C)c3cc(C4CC4)ncc13)CCC2` [Example 22, N-[3-cyclopropyl-5-(2-methylpropylsulfamoyl)-7,8-dihydro-6H-cyclopenta[g]isoquinolin-9-yl]acetamide], the IC50 lay within 100 to 2000 nM.
As to `CC(C)(F)CNS(=O)(=O)c1c2c(cc3c(F)nc(C4CC4)cc13)CC(Nc1ccc(C(N)=O)nc1)C2` (stereo not drawn) [Example 23, 5-[[3-cyclopropyl-1-fluoro-5-[(2-fluoro-2-methyl-propyl)sulfamoyl]-7,8-dihydro-6H-cyclopenta[g]isoquinolin-7-yl]amino]pyridine-2-carboxamide], the IC50 lay in the range of 10 to 50 nM.
The value for `COC(=O)c1ccc(NC2Cc3cc4c(F)nc(C5CC5)cc4c(S(=O)(=O)NCC(C)(C)F)c3C2)cn1` (stereo not drawn) [Example 24, methyl 5-[[3-cyclopropyl-1-fluoro-5-[(2-fluoro-2-methyl-propyl)sulfamoyl]-7,8-dihydro-6H-cyclopenta[g]isoquinolin-7-yl]amino]pyridine-2-carboxylate] was 10 to 50 nM.
The result for `COc1nc(C2CC2)cc2c(S(=O)(=O)NCC(C)(C)F)c3c(cc12)CC(Nc1ccc(C2(O)COC2)nc1)C3` (stereo not drawn) [Example 26, 3-cyclopropyl-N-(2-fluoro-2-methylpropyl)-7-[[6-(3-hydroxyoxetan-3-yl)pyridin-3-yl]amino]-1-methoxy-7,8-dihydro-6H-cyclopenta[g]isoquinoline-5-sulfonamide] reads 100 to 2000 nM; that for `CC(C)(F)CNS(=O)(=O)c1c2c(cc3cnc(C4CC4)cc13)CC(Nc1ccc(N3CC(C)(O)C3)nc1)C2` (stereo not drawn) [Example 27, 3-cyclopropyl-N-(2-fluoro-2-methylpropyl)-7-[[6-(3-hydroxy-3-methylazetidin-1-yl)pyridin-3-yl]amino]-7,8-dihydro-6H-cyclopenta[g]isoquinoline-5-sulfonamide], 100 to 2000 nM.
With `COc1ccc(NC2Cc3cc4cnc(C5CC5)cc4c(S(=O)(=O)NCC(C)(C)F)c3C2)nn1` (stereo not drawn) [Example 28, 3-cyclopropyl-N-(2-fluoro-2-methylpropyl)-7-[(6-methoxypyridazin-3-yl)amino]-7,8-dihydro-6H-cyclopenta[g]isoquinoline-5-sulfonamide], the IC50 lay within 10 to 50 nM.
